# Laboratory results from PMC12892976, “Alkylation-based optimization of antifungal FPPS inhibitors yields a potent, broad-spectrum lipophilic zoledronate derivative” (mBio, 2025).
# Experiments:
# [1] = system: Epidermophyton floccosum; assay: checkerboard drug interaction (FICI, MICc);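 also: simplified diagonal checkerboard screen pairing antifungals with FPPS inhibitors, FICI calculated under the Loewe additivity model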
# Method: (§1) Drug interactions between antifungals and FPPS inhibitors were investigated using a simplified checkerboard diagonal screening method ([45]). […] FICIs were determined according to the Loewe additivity model ([17]).
# [2] = system: Aspergillus terreus; assay: checkerboard drug interaction (FICI, MICc); type: cell-based;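 also: simplified diagonal checkerboard screen pairing antifungals with FPPS inhibitors, FICI derived by the Loewe additivity model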
# Method: as §1
# [3] = system: Aspergillus frankstonensis; assay: MIC broth microdilution (CLSI); type: cell-based; settings: Aspergillus frankstonensis DTO 341-F3
# Method: (§2) Antifungal susceptibility was determined by broth microdilution according to the CLSI guidelines described in M27-Ed4 ([16]).
# [4] = system: Aspergillus niger; assay: MIC broth microdilution (CLSI); type: cell-based; settings: Aspergillus niger 111
# Method: as §2
# [5] = system: Trichophyton soudanense; assay: MIC broth microdilution (CLSI); settings: Trichophyton soudanense R-167
# Method: as §2
# [6] = system: Cryptococcus deneoformans; assay: checkerboard drug interaction (FICI, MICc); type: cell-based;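 also: simplified diagonal checkerboard screen pairing antifungals with FPPS inhibitors, FICI calculated under the Loewe additivity model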
# Method: as §1
# [7] = system: Paraphyton cookei; assay: checkerboard drug interaction (FICI, MICc);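 also: simplified diagonal checkerboard screen pairing an antifungal with an FPPS inhibitor, FICI computed under the Loewe additivity model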
# Method: as §1
# [8] = system: Aspergillus felis; assay: checkerboard drug interaction (FICI, MICc); type: cell-based;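 also: simplified diagonal checkerboard screen pairing antifungals with FPPS inhibitors, FICI calculated under the Loewe additivity model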
# Method: as §1
# [9] = system: Aspergillus niger; assay: checkerboard drug interaction (FICI, MICc); type: cell-based;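 also: simplified diagonal checkerboard screen pairing antifungals with FPPS inhibitors, FICI calculated under the Loewe additivity model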
# Method: as §1
# [10] = system: Aspergillus parafelis; assay: MIC broth microdilution (CLSI); type: cell-based; settings: Aspergillus parafelis DTO 341-F2
# Method: as §2
# [11] = system: Fusarium solani; assay: MIC broth microdilution (CLSI); settings: Fusarium solani 04-16-056-1862
# Method: as §2
# [12] = system: Rhizopus oryzae; assay: checkerboard drug interaction (FICI, MICc); type: cell-based
# Method: as §1
# [13] = system: Candida auris; assay: MIC broth microdilution (CLSI); type: cell-based; settings: Candida auris CDC-0384
# Method: as §2
# [14] = system: Trichophyton interdigitale; assay: checkerboard drug interaction (FICI, MICc);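 also: simplified diagonal checkerboard screen pairing antifungals with FPPS inhibitors, FICI values calculated under the Loewe additivity model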
# Method: as §1
# [15] = system: Trichophyton tonsurans; assay: MIC broth microdilution (CLSI); settings: Trichophyton tonsurans R-168
# Method: as §2
# [16] = system: Aspergillus udagawae; assay: checkerboard drug interaction (FICI, MICc); type: cell-based;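 also: simplified diagonal checkerboard screen pairing antifungals with FPPS inhibitors, FICI calculated using the Loewe additivity model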
# Method: as §1
# [17] = system: Trichophyton interdigitale; assay: MIC broth microdilution (CLSI); type: cell-based; settings: Trichophyton interdigitale R-234
# Method: as §2
# [18] = system: Candida auris; assay: checkerboard drug interaction (FICI, MICc); type: cell-based;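 also: simplified diagonal checkerboard screen pairing antifungals with FPPS inhibitors, with FICI computed under the Loewe additivity model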
# Method: as §1
# [19] = system: Mucor circinelloides; assay: MIC broth microdilution (CLSI); type: cell-based; settings: Mucor circinelloides 80-14-240-5007
# Method: as §2
# [20] = system: Nannizzia nana; assay: MIC broth microdilution (CLSI); type: cell-based; settings: Nannizzia nana R-133
# Method: as §2
# [21] = system: Pichia kudriavzevii; assay: MIC broth microdilution (CLSI); type: cell-based; settings: Pichia kudriavzavii ATCC 6258
# Method: Antifungal susceptibility was determined by broth microdilution according to the CLSI guidelines described in M27-Ed4 ([16]). […] MFC was determined by back-plating drug-treated cultures from MIC broths onto SDA plates. The MFC was defined as the lowest concentration from which no colonies could be cultured.
# [22] = system: Scedosporium apiospermum; assay: checkerboard drug interaction (FICI, MICc); type: cell-based;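 also: simplified diagonal checkerboard screen of antifungal plus FPPS inhibitor pairs, with FICI computed under the Loewe additivity model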
# Method: as §1
# [23] = system: Cryptococcus deneoformans; assay: MIC broth microdilution (CLSI); type: cell-based; settings: Cryptococcus deneoformans JEC21
# Method: as §2
# [24] = system: Aspergillus frankstonensis; assay: checkerboard drug interaction (FICI, MICc);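 also: simplified diagonal checkerboard screen pairing antifungals with FPPS inhibitors, FICI calculated using the Loewe additivity model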
# Method: as §1
# [25] = system: Lomentospora prolificans; assay: checkerboard drug interaction (FICI, MICc)
# Method: as §1
# [26] = system: Cryptococcus bacillisporus; assay: MIC broth microdilution (CLSI); type: cell-based; settings: Cryptococcus bacillisporus NIH179
# Method: as §2
# [27] = system: Aspergillus lentulus; assay: MIC broth microdilution (CLSI); type: cell-based; settings: Aspergillus lentulus DTO 341-G7
# Method: as §2
# [28] = system: Cryptococcus bacillisporus; assay: checkerboard drug interaction (FICI, MICc); type: cell-based;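 also: interaction of antifungals with FPPS inhibitors assessed by a simplified diagonal checkerboard screen, with FICI computed under the Loewe additivity model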
# Method: as §1
# [29] = system: Candida dubliniensis; assay: checkerboard drug interaction (FICI, MICc); type: cell-based
# Method: as §1
# [30] = system: Aspergillus lentulus; assay: checkerboard drug interaction (FICI, MICc); type: cell-based;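 also: simplified diagonal checkerboard screen pairing antifungals with FPPS inhibitors, with the interaction index calculated under the Loewe additivity model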
# Method: as §1
# [31] = system: Rhizopus oryzae; assay: MIC broth microdilution (CLSI); type: cell-based; settings: Rhizopus oryzae 04-14-364-1703
# Method: as §2
# [32] = system: Cryptococcus tetragattii; assay: checkerboard drug interaction (FICI, MICc); type: cell-based;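 also: simplified diagonal checkerboard screen pairing antifungals with FPPS inhibitors, with FICI calculated under the Loewe additivity model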
# Method: as §1
# [33] = system: Aspergillus parafelis; assay: checkerboard drug interaction (FICI, MICc)
# Method: as §1
# [34] = system: Paraphyton cookei; assay: MIC broth microdilution (CLSI); type: cell-based; settings: Paraphyton cookei R-639
# Method: as §2
smiles,measurement,setting,value
"C[C@@H]1[C@H](O)[C@@H](C)/C=C/C=C/C=C/C=C/C=C/C=C/C=C/[C@H](O[C@@H]2O[C@H](C)[C@@H](O)[C@H](N)[C@@H]2O)C[C@@H]2O[C@](O)(C[C@@H](O)C[C@@H](O)[C@H](O)CC[C@@H](O)C[C@@H](O)CC(=O)O[C@H]1C)C[C@H](O)[C@H]2C(=O)O [AMB, amphotericin B]",antifungal MICc,[1]; in combination with 10-ZOL,0.5
same,antifungal MICc,[1]; in combination with ZOL,0.25
same,antifungal MICc,[2]; in combination with 10-ZOL,0.25
same,antifungal MICc,[2]; in combination with ZOL,0.5
same,MIC / MEC,[3],2 µg/mL
same,MIC / MEC,[4],0.13 µg/mL
same,MIC / MEC,[5],0.5 µg/mL
same,antifungal MICc,[6]; in combination with 10-ZOL,0.125
same,antifungal MICc,[6]; in combination with ZOL,0.125
same,antifungal MICc,[7]; in combination with 10-ZOL,1
same,antifungal MICc,[7]; in combination with ZOL,0.25
same,antifungal MICc,[8]; in combination with 10-ZOL,2
same,antifungal MICc,[8]; in combination with ZOL,8
same,antifungal MICc,[9]; in combination with 10-ZOL,0.25
same,antifungal MICc,[9]; in combination with ZOL,0.125
same,MIC / MEC,[10],4 µg/mL
same,MIC / MEC,[11],0.5 µg/mL
same,antifungal MICc,[12]; in combination with 10-ZOL,0.13
same,antifungal MICc,[12]; in combination with ZOL,0.13
same,MIC / MEC,[13],2 µg/mL
same,antifungal MICc,[14]; in combination with 10-ZOL,0.25
same,antifungal MICc,[14]; in combination with ZOL,1
same,MIC / MEC,[15],0.13 µg/mL
same,antifungal MICc,[16]; in combination with 10-ZOL,0.25
same,antifungal MICc,[16]; in combination with ZOL,0.25
same,MIC / MEC,[17],0.5 µg/mL
same,antifungal MICc,[18]; in combination with 10-ZOL,1
same,antifungal MICc,[18]; in combination with ZOL,2
same,MIC / MEC,[19],0.25 µg/mL
same,MIC / MEC,[20],0.5 µg/mL
same,MIC / MEC,[21],0.5 µg/mL
same,antifungal MICc,[22]; in combination with 10-ZOL,2
same,antifungal MICc,[22]; in combination with ZOL,8
same,MIC / MEC,[23],0.25 µg/mL
same,antifungal MICc,[24]; in combination with 10-ZOL,1
same,antifungal MICc,[24]; in combination with ZOL,2
same,antifungal MICc,[25]; in combination with 10-ZOL,4
same,antifungal MICc,[25]; in combination with ZOL,4
same,MIC / MEC,[26],0.25 µg/mL
same,MIC / MEC,[27],4 µg/mL
same,antifungal MICc,[28]; in combination with 10-ZOL,0.125
same,antifungal MICc,[28]; in combination with ZOL,1
same,antifungal MICc,[29]; in combination with 10-ZOL,0.25
same,antifungal MICc,[29]; in combination with ZOL,0.25
same,antifungal MICc,[30]; in combination with 10-ZOL,1
same,antifungal MICc,[30]; in combination with ZOL,2
same,MIC / MEC,[31],0.13 µg/mL
same,antifungal MICc,[32]; in combination with 10-ZOL,0.25
same,antifungal MICc,[32]; in combination with ZOL,0.125
same,antifungal MICc,[33]; in combination with 10-ZOL,1
same,antifungal MICc,[33]; in combination with ZOL,4
same,MIC / MEC,[34],1 µg/mL
"CC[C@H](C)C[C@H](C)CCCCCCCCC(=O)N[C@H]1C[C@@H](O)[C@@H](NCCN)NC(=O)[C@@H]2[C@@H](O)CCN2C(=O)[C@H]([C@H](O)CCN)NC(=O)[C@H]([C@H](O)[C@@H](O)c2ccc(O)cc2)NC(=O)[C@@H]2C[C@@H](O)CN2C(=O)[C@H]([C@@H](C)O)NC1=O [CAS, caspofungin]",antifungal MICc,[1]; in combination with 10-ZOL,0.125
same,antifungal MICc,[1]; in combination with ZOL,0.25
same,antifungal MICc,[2]; in combination with 10-ZOL,2
same,antifungal MICc,[2]; in combination with ZOL,2
same,MIC / MEC,[3],0.13 µg/mL
same,MIC / MEC,[4],4 µg/mL
same,MIC / MEC,[5],0.5 µg/mL
same,antifungal MICc,[6]; in combination with 10-ZOL,2
same,antifungal MICc,[6]; in combination with ZOL,8
same,antifungal MICc,[7]; in combination with 10-ZOL,0.25
same,antifungal MICc,[7]; in combination with ZOL,0.125
same,antifungal MICc,[8]; in combination with 10-ZOL,0.5
same,antifungal MICc,[8]; in combination with ZOL,0.5
same,antifungal MICc,[9]; in combination with 10-ZOL,2
same,antifungal MICc,[9]; in combination with ZOL,4
same,MIC / MEC,[10],0.13 µg/mL
same,MIC / MEC,[11],16 µg/mL
same,antifungal MICc,[12]; in combination with 10-ZOL,128
same,antifungal MICc,[12]; in combination with ZOL,4
same,MIC / MEC,[13],4 µg/mL
same,antifungal MICc,[14]; in combination with 10-ZOL,0.5
same,antifungal MICc,[14]; in combination with ZOL,0.25
same,MIC / MEC,[15],0.5 µg/mL
same,antifungal MICc,[16]; in combination with 10-ZOL,1
same,antifungal MICc,[16]; in combination with ZOL,2
same,MIC / MEC,[17],0.25 µg/mL
same,antifungal MICc,[18]; in combination with 10-ZOL,0.5
same,antifungal MICc,[18]; in combination with ZOL,4
same,MIC / MEC,[19],>16 µg/mL
same,MIC / MEC,[20],0.13 µg/mL
same,MIC / MEC,[21],1 µg/mL
same,antifungal MICc,[22]; in combination with 10-ZOL,16
same,antifungal MICc,[22]; in combination with ZOL,32
same,MIC / MEC,[23],16 µg/mL
same,antifungal MICc,[24]; in combination with 10-ZOL,0.125
same,antifungal MICc,[24]; in combination with ZOL,0.5
same,antifungal MICc,[25]; in combination with 10-ZOL,128
same,antifungal MICc,[25]; in combination with ZOL,64
same,MIC / MEC,[26],8 µg/mL
same,MIC / MEC,[27],4 µg/mL
same,antifungal MICc,[28]; in combination with 10-ZOL,2
same,antifungal MICc,[28]; in combination with ZOL,8
same,antifungal MICc,[29]; in combination with 10-ZOL,0.063
same,antifungal MICc,[29]; in combination with ZOL,0.01
same,antifungal MICc,[30]; in combination with 10-ZOL,4
same,antifungal MICc,[30]; in combination with ZOL,2
same,MIC / MEC,[31],>16 µg/mL
same,antifungal MICc,[32]; in combination with 10-ZOL,1
same,antifungal MICc,[32]; in combination with ZOL,16
same,antifungal MICc,[33]; in combination with 10-ZOL,0.5
same,antifungal MICc,[33]; in combination with ZOL,0.065
same,MIC / MEC,[34],0.25 µg/mL
"CCC(C)n1ncn(-c2ccc(N3CCN(c4ccc(OCC5COC(Cn6cncn6)(c6ccc(Cl)cc6Cl)O5)cc4)CC3)cc2)c1=O (stereo not drawn) [ITR, itraconazole]",antifungal MICc,[1]; in combination with 10-ZOL,0.5
same,antifungal MICc,[1]; in combination with ZOL,0.5
same,antifungal MICc,[2]; in combination with 10-ZOL,0.25
same,antifungal MICc,[2]; in combination with ZOL,0.13
same,MIC / MEC,[3],2 µg/mL
same,MIC / MEC,[4],2 µg/mL
same,MIC / MEC,[5],0.5 µg/mL
same,antifungal MICc,[6]; in combination with 10-ZOL,0.063
same,antifungal MICc,[6]; in combination with ZOL,0.125
same,antifungal MICc,[7]; in combination with 10-ZOL,0.063
same,antifungal MICc,[7]; in combination with ZOL,1
same,antifungal MICc,[8]; in combination with 10-ZOL,0.5
same,antifungal MICc,[8]; in combination with ZOL,1
same,antifungal MICc,[9]; in combination with 10-ZOL,0.25
same,antifungal MICc,[9]; in combination with ZOL,1
same,MIC / MEC,[10],8 µg/mL
same,MIC / MEC,[11],2 µg/mL
same,antifungal MICc,[12]; in combination with 10-ZOL,0.125
same,antifungal MICc,[12]; in combination with ZOL,2
same,MIC / MEC,[13],2 µg/mL
same,antifungal MICc,[14]; in combination with 10-ZOL,0.5
same,antifungal MICc,[14]; in combination with ZOL,0.25
same,MIC / MEC,[15],1 µg/mL
same,antifungal MICc,[16]; in combination with 10-ZOL,0.25
same,antifungal MICc,[16]; in combination with ZOL,0.5
same,MIC / MEC,[17],1 µg/mL
same,antifungal MICc,[18]; in combination with 10-ZOL,1
same,antifungal MICc,[18]; in combination with ZOL,1
same,MIC / MEC,[19],0.5 µg/mL
same,MIC / MEC,[20],0.25 µg/mL
same,MIC / MEC,[21],1 µg/mL
same,antifungal MICc,[22]; in combination with 10-ZOL,4
same,antifungal MICc,[22]; in combination with ZOL,4
same,MIC / MEC,[23],0.06 µg/mL
same,antifungal MICc,[24]; in combination with 10-ZOL,1
same,antifungal MICc,[24]; in combination with ZOL,2
same,antifungal MICc,[25]; in combination with 10-ZOL,1
same,antifungal MICc,[25]; in combination with ZOL,2
same,MIC / MEC,[26],0.06 µg/mL
same,MIC / MEC,[27],2 µg/mL
same,antifungal MICc,[28]; in combination with 10-ZOL,0.033
same,antifungal MICc,[28]; in combination with ZOL,0.0625
same,antifungal MICc,[29]; in combination with 10-ZOL,0.033
same,antifungal MICc,[29]; in combination with ZOL,0.03125
same,antifungal MICc,[30]; in combination with 10-ZOL,0.25
same,antifungal MICc,[30]; in combination with ZOL,0.5
same,MIC / MEC,[31],2 µg/mL
same,antifungal MICc,[32]; in combination with 10-ZOL,0.25
same,antifungal MICc,[32]; in combination with ZOL,1
same,antifungal MICc,[33]; in combination with 10-ZOL,2
same,antifungal MICc,[33]; in combination with ZOL,8
same,MIC / MEC,[34],2 µg/mL
